According to paper PMC7408095 (Pharmaceutics, 2020):
Read-outs that look alike come from different tables or passages of the source. Values belong to the compound of their own block, whether it stands above or below them.

Columns and labels:
[1] = Plasma pharmacokinetics of atorvastatin, 2-OH AT and 4-OH AT in rats (UPLC-MS/MS); conditions: for AUC0-t / AUC0-∞ / Cmax / metabolite/atorvastatin Cmax ratio: rat plasma
Protocol: (§1) The concentration of each of the working solutions was 10 μg/mL. The sample preparation involved liquid-liquid extraction. […] The analytes were separated in a Zorbax Plus C18 column (100 × 2.1 mm; 3.5 μm) (Agilent Technologies, Santa Clara, California, USA) at a column temperature of 40 °C. The mobile phase was a mixture of de-ionized water (A) and acetonitrile (B), both containing 0.1% (v/v) formic acid. […] The mobile phase flow was set to 0.3 mL/min. The eluent from the HPLC column was introduced directly to the MS interface, using electrospray ionization in the positive ion mode. The MS parameters were as follows: interface temperature, 350 °C; DL temperature, 250 °C; heat block temperature, 400 °C; nebulizing gas flow, 2 L/min; and drying gas flow, 15 L/min. The electrospray needle voltage was 3.5 kV. The specific transitions for the analytes were monitored using the multiple reaction monitoring (MRM) mode.

[2] = rat, in vivo, po, 20 mg/kg
Protocol: as §1

[3] = Adverse effects of the doses used in healthy rats; type: in vivo
[4] = rat, in vivo, 20 mg/kg; cited from earlier work
[5] = rat, in vivo, po, 100 mg/kg
Description: (§2) The Phoenix® WinNonlin version 8.0 software (Certara, Princeton, New Jersey, USA) was used for the calculation of the following pharmacokinetic parameters: • The elimination rate constant (ke); • The absorption rate constant (ka); • The elimination half-life (t1/2); • The maximum plasma concentration (Cmax); • The time to reach the Cmax (tmax); • The total area under the concentration–time curve (AUC0-t and AUC0--∞); • The apparent plasma drug clearance (Cl/F); • The apparent volume of distribution (Vd/F).

[6] = cited from earlier work
[7] = cited from earlier work; remark: listed apart in the source
[8] = Plasma pharmacokinetics of sorafenib and sorafenib N-oxide in rats (HPLC-UV); conditions: for AUC0-t / AUC(0-inf) / Cmax / Vd/F / k el / half-life: male, Wistar, rat, plasma, po, 100 mg/kg; for AUC0-t / AUC(0-inf) / Cmax / Vd/F / k el / ka: rat plasma; for AUC(0-inf): AUC0-∞; for k el: kel; for half-life: t1/2, rat plasma;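 for all read-outs here: pharmacokinetic parameters were computed with Phoenix WinNonlin 8.0 software from the plasma concentration–time curve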
Description: as §2

in vivo = conditions: male, Wistar, rat, plasma, po, 100 mg/kg
Description: as §2

[9] = Plasma pharmacokinetics of metformin in rats (HPLC-UV)
Description: as §2

[10] = single oral atorvastatin 20 mg/kg b.w. alone (IVAT group)
[11] = single oral sorafenib 100 mg/kg + atorvastatin 20 mg/kg b.w. (ISOR+AT group)
[12] = rats, ISOR+AT group vs IVAT group
[13] = single oral sorafenib 100 mg/kg + metformin 100 mg/kg b.w. (IISOR+MET group)
[14] = single oral sorafenib 100 mg/kg b.w. alone (IIISOR group)
[15] = rats, IISOR+MET group vs IIISOR group
[16] = rats, ISOR+AT group vs IIISOR group
[17] = rat plasma, single oral sorafenib 100 mg/kg + metformin 100 mg/kg b.w. (IISOR+MET group)

SMILES: CC(C)c1c(C(=O)Nc2ccccc2O)c(-c2ccccc2)c(-c2ccc(F)cc2)n1CCC(O)CC(O)CC(=O)O (stereo not drawn) [2-OH AT, 2-hydroxy atorvastatin]
- AUC0-t [1, 10]: 617.32 ± 277.54 (45.0) ng × h/mL
- AUC0-∞ [1, 10]: 695.68 ± 297.16 (42.7) ng × h/mL
- Cmax [1, 10]: 175.20 ± 116.62 (66.6) ng/mL
- metabolite/atorvastatin Cmax ratio [1, 10]: 2.35 ± 1.12 (47.6) ng/mL
- AUC0-t [1, 11]: 958.91 ± 342.91 (35.8) ng × h/mL
- AUC0-∞ [1, 11]: 993.97 ± 343.87 (34.6) ng × h/mL
- Cmax [1, 11]: 185.82 ± 90.16 (48.5) ng/mL
- metabolite/atorvastatin Cmax ratio [1, 11]: 2.43 ± 1.06 (43.6) ng/mL
- change in the 2-OH AT/atorvastatin ratio for AUC0-t [1, 12]: −19.4%
- change in the 2-OH AT/atorvastatin ratio for AUC0-∞ [1, 12]: −26.0%
- increase in AUC caused by sorafenib (abstract) [1, 12]: 55.3%

- AUC0-t [2]: 14.63 ± 5.57 (38.1) ng × h/mL
- AUC0-∞ [2]: 19.22 ± 7.06 (36.7) ng × h/mL
SMILES: CC(C)c1c(C(=O)Nc2ccc(O)cc2)c(-c2ccccc2)c(-c2ccc(F)cc2)n1CC[C@@H](O)C[C@@H](O)CC(=O)O [4-OH AT, 4-hydroxy atorvastatin]

SMILES: CC(C)c1c(C(=O)Nc2ccccc2)c(-c2ccccc2)c(-c2ccc(F)cc2)n1CC[C@@H](O)C[C@@H](O)CC(=O)O [Atorvastatin, atorvastatin]
- adverse effects ([3]; 20 mg/kg single oral dose): did not cause any adverse effects
- safety [4]: safe

- AUC0-t [5]: 4.10 ± 1.56 (38.1) µg × h/mL
- AUC0-∞ [5]: 8.61 ± 2.19 (25.4) µg × h/mL
- k el [5]: 0.016 ± 0.010 (60.9) h^−1
- tmax [5]: 16.38 ± 8.21 (50.1) h
SMILES: CNC(=O)c1cc(Oc2ccc(NC(=O)Nc3ccc(Cl)c(C(F)(F)F)c3)cc2)cc[n+]1[O-] [Sorafenib N-oxide, sorafenib N-oxide]

- AUC0-t [8, 11]: 105000 ± 18900 ng·h/mL
- AUC0-t [8, 13]: 35200 ± 8360 ng·h/mL
- AUC0-t [8, 14]: 62800 ± 16100 ng·h/mL
- AUC(0-inf) [8, 11]: 106000 ± 19300 ng·h/mL
- AUC(0-inf) [8, 13]: 36800 ± 8960 ng·h/mL
- Cmax [8, 11]: 3660 ± 1210 ng/mL
- Cmax [8, 13]: 1270 ± 380 ng/mL
- Vd/F [8, 11]: 9.98 ± 2.48 L
- Vd/F [8, 13]: 34.1 ± 18.7 L
- Vd/F [8, 14]: 25.3 ± 11.6 L
- k el [8, 11]: 1.39e-05 s⁻¹
- k el [8, 13]: 1.39e-05 s⁻¹
- k el [8, 14]: 9.72e-06 s⁻¹
- half-life [8, 11]: 14.7 ± 3.17 h
- half-life [8, 13]: 16.3 ± 3.72 h
- half-life [8, 14]: 21.9 ± 7.79 h
- ka [8, 11]: 0.20 ± 0.11 (53.2) h^−1
- ka [8, 13]: 0.35 ± 0.23 (66.8) h^−1
- ka [8, 14]: 0.74 ± 0.31 (42.5) h^−1
- decrease in AUC0-t in the presence of metformin [8, 15]: 44.0%
- decrease in AUC0-∞ in the presence of metformin [8, 15]: 45.1%
- decrease in ka in the presence of metformin [8, 15]: 0.5 fold
- increase in clearance in the presence of metformin [8, 15]: 76.3%
- decrease in ka with co-administered atorvastatin [8, 16]: 73.0%
- decrease in t1/2 with co-administered atorvastatin [8, 16]: 0.3 fold
- increase in AUC0-t with co-administered atorvastatin [8, 16]: 66.6%
- increase in AUC0-∞ with co-administered atorvastatin [8, 16]: 58.7%
- increase in AUC with co-administered atorvastatin (abstract) [8, 16]: 66.6%
- increase in Cmax with co-administered atorvastatin [8, 16]: 134.6%
- increase in kel with co-administered atorvastatin [8, 16]: 42.9%
- increase in tmax with co-administered atorvastatin [8, 16]: 116.9%
SMILES: CNC(=O)c1cc(Oc2ccc(NC(=O)Nc3ccc(Cl)c(C(F)(F)F)c3)cc2)ccn1 [Sorafenib, sorafenib]
- protein-bound form in plasma [6]: 99.5%
- decrease in sorafenib absorption with a high-fat diet ([7]; clinically important interaction): 30%
- share in the systemic circulation ([7]; sorafenib unchanged or as sorafenib N-oxide): 70−85%

- AUC0-t (in vivo): 3830 ± 1230 ng·h/mL
- AUC(0-inf) (in vivo): 7900 ± 1930 ng·h/mL
- Cmax (in vivo): 500 ± 290 ng/mL
- MRT last (in vivo): 9.81 ± 1.27 h
- Vd/F (in vivo): 228 ± 91 L
- k el (in vivo): 8.33e-06 s⁻¹
- tmax (in vivo): 1.09 ± 0.57 h
- Cl/F ([9]; rat plasma, single oral metformin 100 mg/kg b.w. alone (VMET group)): 6.31 ± 1.48 (23.5) L/h
- AUC0-t [9, 17]: 3.64 ± 1.15 (31.6) µg × h/mL
- AUC0-∞ [9, 17]: 10.88 ± 4.50 (41.4) µg × h/mL
- Cl/F [9, 17]: 5.50 ± 3.08 (56.0) L/h
- Cmax [9, 17]: 0.46 ± 0.26 (56.5) µg/mL
- MRT0-t [9, 17]: 8.65 ± 2.22 (25.7) h
- Vd/F [9, 17]: 297.89 ± 133.23 (44.7) L
- k el [9, 17]: 0.03 ± 0.04 (133.3) h^−1
- tmax [9, 17]: 1.88 ± 0.23 (12.2) h
- increase in tmax with co-administered sorafenib ([9]; rats, IISOR+MET group vs VMET group): 71.39%
SMILES: CN(C)C(=N)N=C(N)N [metformin]
- adverse effects ([3]; 100 mg/kg single oral dose): did not cause any adverse effects
- plasma protein-bound fraction [6]: negligible
